In ChEMBL document CHEMBL1201862, “PubChem BioAssay data set” (2004):
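In this assay, cells in 96-well plates receive the compound at five concentrations for 48 hours. Endpoints are linearly interpolated between the surrounding concentrations. Here, GI50 denotes the concentration required for 50% inhibition of growth.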 Activity calls are given as the source filed them. Cut-off read from the data, not from the text of the source: active = GI50 up to about 1.1 µM and inactive = higher.

Experiments:
Test in all cases: inhibition of tumour cell growth, NCI panel, 48 h
[1] = system: A549
[2] = system: ACHN
[3] = system: BT-549
[4] = system: HCT-116
[5] = system: HL-60
[6] = system: HOP-62
[7] = system: HT-29
[8] = system: IGROV-1
[9] = system: K562
[10] = system: NCI-H460
[11] = system: OVCAR-4
[12] = system: PC-3
[13] = system: RPMI-8226
[14] = system: SF-295
[15] = system: SF-539
[16] = system: SK-MEL-28
[17] = system: SN12C
[18] = system: UACC-257
[19] = system: UO-31

Compound	GI50 [1]	GI50 [2]	GI50 [3]	GI50 [4]	GI50 [5]	GI50 [6]	GI50 [7]	GI50 [8]	GI50 [9]	GI50 [10]	GI50 [11]	GI50 [12]	GI50 [13]	GI50 [14]	GI50 [15]	GI50 [16]	GI50 [17]	GI50 [18]	GI50 [19]
O=C(O)C(Oc1nc(S)nc(S)n1)(c1ccc(Cl)cc1)c1ccc(Cl)cc1	> 100 µM (inactive)	> 100 µM (inactive)	> 100 µM (inactive)	> 100 µM (inactive)	> 100 µM (inactive)	> 100 µM (inactive)	> 100 µM (inactive)	> 100 µM (inactive)	> 100 µM (inactive)	> 100 µM (inactive)	> 100 µM (inactive)	> 100 µM (inactive)	> 100 µM (inactive)	> 100 µM (inactive)	> 100 µM (inactive)	> 100 µM (inactive)	> 100 µM (inactive)	> 100 µM (inactive)	> 100 µM (inactive)
CCCc1cn2c(/C=N/NC(=N)N)c(-c3ccc(Cl)c([N+](=O)[O-])c3)nc2s1	1.73 µM (inactive)	1.69 µM (inactive)	1.68 µM (inactive)	1.22 µM (inactive)	1.2 µM (inactive)	1.88 µM (inactive)	0.826 µM (active)	1.89 µM (inactive)	1.37 µM (inactive)	2.1 µM (inactive)	1.06 µM (active)	1.81 µM (inactive)	1.64 µM (inactive)	1.66 µM (inactive)	1.88 µM (inactive)	1.64 µM (inactive)	1.84 µM (inactive)	1.61 µM (inactive)	1.76 µM (inactive)
N#Cc1c(SCc2ccccc2)nc(-c2ccccc2)[nH]c1=S	30.8 µM (inactive)	23 µM (inactive)	20.6 µM (inactive)	23.7 µM (inactive)	30.6 µM (inactive)	19.8 µM (inactive)	28.4 µM (inactive)	29.9 µM (inactive)	31.6 µM (inactive)	23.2 µM (inactive)	30.9 µM (inactive)	18.7 µM (inactive)	24.7 µM (inactive)	22.4 µM (inactive)	25.2 µM (inactive)	22.3 µM (inactive)	32.5 µM (inactive)	35.2 µM (inactive)	17.8 µM (inactive)
COC(=O)CCc1cc(OC)c2oc(-c3ccc(OC)c(OC)c3)c(CO)c2c1	> 100 µM (inactive)	> 100 µM (inactive)	> 100 µM (inactive)	> 100 µM (inactive)	> 100 µM (inactive)	> 100 µM (inactive)	> 100 µM (inactive)	> 100 µM (inactive)	> 100 µM (inactive)	> 100 µM (inactive)	> 100 µM (inactive)	> 100 µM (inactive)	99.5 µM (inactive)	> 100 µM (inactive)	> 100 µM (inactive)	> 100 µM (inactive)	> 100 µM (inactive)	> 100 µM (inactive)	> 100 µM (inactive)
O=C(O)c1cc2ccccc2c(/N=N/c2ccc(S(=O)(=O)Nc3ccccn3)cc2)c1O	> 100 µM (inactive)	> 100 µM (inactive)	> 100 µM (inactive)	> 100 µM (inactive)	> 100 µM (inactive)	> 100 µM (inactive)	> 100 µM (inactive)	> 100 µM (inactive)	> 100 µM (inactive)	> 100 µM (inactive)	> 100 µM (inactive)	> 100 µM (inactive)	> 100 µM (inactive)	> 100 µM (inactive)	> 100 µM (inactive)	> 100 µM (inactive)	> 100 µM (inactive)	> 100 µM (inactive)	> 100 µM (inactive)
Brc1cc2nn(-c3ccccc3)nc2c2nonc12	> 100 µM (inactive)	> 100 µM (inactive)	> 100 µM (inactive)	> 100 µM (inactive)	> 100 µM (inactive)	> 100 µM (inactive)	> 100 µM (inactive)	> 100 µM (inactive)	> 100 µM (inactive)	> 100 µM (inactive)	> 100 µM (inactive)	> 100 µM (inactive)	> 100 µM (inactive)	> 100 µM (inactive)	> 100 µM (inactive)	> 100 µM (inactive)	> 100 µM (inactive)	> 100 µM (inactive)	> 100 µM (inactive)
COc1ccc(C2Oc3ccc(Cl)cc3C=C2[N+](=O)[O-])cc1OC (stereo unspecified)	1.83 µM (inactive)	1.43 µM (inactive)	1.15 µM (inactive)	0.426 µM (active)	0.204 µM (active)	1.49 µM (inactive)	1 µM (active)	1.56 µM (inactive)	0.164 µM (active)	2.38 µM (inactive)	1.93 µM (inactive)	1.32 µM (inactive)	0.229 µM (active)	1.48 µM (inactive)	1.55 µM (inactive)	1.27 µM (inactive)	0.871 µM (active)	1.41 µM (inactive)	2 µM (inactive)
CCC[C@H](C)C[C@H](C)C[C@H](C)/C=C(\C)[C@@H](O)[C@@H](C)C(=O)CC	19.9 µM (inactive)	21.9 µM (inactive)	23.4 µM (inactive)	17.5 µM (inactive)	17.9 µM (inactive)	20.4 µM (inactive)	19.5 µM (inactive)	19.3 µM (inactive)	18.3 µM (inactive)	24 µM (inactive)	19.2 µM (inactive)	20 µM (inactive)	23.2 µM (inactive)	22.9 µM (inactive)	21 µM (inactive)	18.7 µM (inactive)	18.8 µM (inactive)	20.1 µM (inactive)	23 µM (inactive)
Nc1nc(N)c(C2=CCN(Cc3ccccc3)CC2)c(=O)[nH]1	> 100 µM (inactive)	> 100 µM (inactive)	> 100 µM (inactive)	> 100 µM (inactive)	> 100 µM (inactive)	> 100 µM (inactive)	> 100 µM (inactive)	> 100 µM (inactive)	> 100 µM (inactive)	> 100 µM (inactive)	> 100 µM (inactive)	> 100 µM (inactive)	> 100 µM (inactive)	> 100 µM (inactive)	> 100 µM (inactive)	> 100 µM (inactive)	> 100 µM (inactive)	> 100 µM (inactive)	> 100 µM (inactive)
CC1(C)OC1CC/C(=C/CBr)CBr (stereo unspecified)	21.3 µM (inactive)	16.9 µM (inactive)	16.7 µM (inactive)	18.1 µM (inactive)	4.92 µM (inactive)	17.3 µM (inactive)	14.9 µM (inactive)	13.8 µM (inactive)	15.8 µM (inactive)	15 µM (inactive)	17 µM (inactive)	15.6 µM (inactive)	12.9 µM (inactive)	14.1 µM (inactive)	18.1 µM (inactive)	17.2 µM (inactive)	15.6 µM (inactive)	14.9 µM (inactive)	14.4 µM (inactive)
O=[N+]([O-])C(C(Cl)=C(Cl)Cl)=C(N1CCCCC1)N1CCCCC1	> 100 µM (inactive)	> 100 µM (inactive)	> 100 µM (inactive)	> 100 µM (inactive)	33.4 µM (inactive)	> 100 µM (inactive)	> 100 µM (inactive)	69.5 µM (inactive)	90.2 µM (inactive)	> 100 µM (inactive)	> 100 µM (inactive)	> 100 µM (inactive)	84.1 µM (inactive)	> 100 µM (inactive)	> 100 µM (inactive)	> 100 µM (inactive)	> 100 µM (inactive)	63.4 µM (inactive)	22.1 µM (inactive)
O=C(Nc1nnc(-c2ccccc2)o1)C(SC(=S)N1CCCC1)c1ccccc1 (stereo unspecified)	26.4 µM (inactive)	26.2 µM (inactive)	23.1 µM (inactive)	25.1 µM (inactive)	19.9 µM (inactive)	24.8 µM (inactive)	35.1 µM (inactive)	22.9 µM (inactive)	24.4 µM (inactive)	16.4 µM (inactive)	38.7 µM (inactive)	27.8 µM (inactive)	24.3 µM (inactive)	22.9 µM (inactive)	34.2 µM (inactive)	49 µM (inactive)	16.7 µM (inactive)	37 µM (inactive)	13.3 µM (inactive)
COc1cc2cc[n+](C)c(Cc3ccc(Oc4cc(Cc5c6cc(OC)c(OC)cc6cc[n+]5C)ccc4OC)cc3)c2cc1OC	> 100 µM (inactive)	> 100 µM (inactive)	> 100 µM (inactive)	> 100 µM (inactive)	45.2 µM (inactive)	> 100 µM (inactive)	> 100 µM (inactive)	> 100 µM (inactive)	> 100 µM (inactive)	> 100 µM (inactive)	> 100 µM (inactive)	91.4 µM (inactive)	> 100 µM (inactive)	59.2 µM (inactive)	> 100 µM (inactive)	> 100 µM (inactive)	> 100 µM (inactive)	> 100 µM (inactive)	> 100 µM (inactive)
CO[C@@H]1C[C@H]2N3CC[C@@]2(c2cc4c(cc2C3)OCO4)[C@H]2O[C@@H]12	> 100 µM (inactive)	> 100 µM (inactive)	> 100 µM (inactive)	> 100 µM (inactive)	> 100 µM (inactive)	> 100 µM (inactive)	> 100 µM (inactive)	> 100 µM (inactive)	> 100 µM (inactive)	> 100 µM (inactive)	> 100 µM (inactive)	> 100 µM (inactive)	> 100 µM (inactive)	> 100 µM (inactive)	0.603 µM (active)	> 100 µM (inactive)	> 100 µM (inactive)	> 100 µM (inactive)	> 100 µM (inactive)
